Measured values reported in patent US11208400B2, “Substituted 6-(1H-pyrazol-1-yl)pyrimidin-4-amine derivatives and uses thereof” (Bayer Aktiengesellschaft, priority 2016, dated 2021).

Biological target: T1, human Npt2a (Homo sapiens, UniProt Q06495)
T1 construct: expressed in transfected cells
T1 sequence (Q06495 1-639): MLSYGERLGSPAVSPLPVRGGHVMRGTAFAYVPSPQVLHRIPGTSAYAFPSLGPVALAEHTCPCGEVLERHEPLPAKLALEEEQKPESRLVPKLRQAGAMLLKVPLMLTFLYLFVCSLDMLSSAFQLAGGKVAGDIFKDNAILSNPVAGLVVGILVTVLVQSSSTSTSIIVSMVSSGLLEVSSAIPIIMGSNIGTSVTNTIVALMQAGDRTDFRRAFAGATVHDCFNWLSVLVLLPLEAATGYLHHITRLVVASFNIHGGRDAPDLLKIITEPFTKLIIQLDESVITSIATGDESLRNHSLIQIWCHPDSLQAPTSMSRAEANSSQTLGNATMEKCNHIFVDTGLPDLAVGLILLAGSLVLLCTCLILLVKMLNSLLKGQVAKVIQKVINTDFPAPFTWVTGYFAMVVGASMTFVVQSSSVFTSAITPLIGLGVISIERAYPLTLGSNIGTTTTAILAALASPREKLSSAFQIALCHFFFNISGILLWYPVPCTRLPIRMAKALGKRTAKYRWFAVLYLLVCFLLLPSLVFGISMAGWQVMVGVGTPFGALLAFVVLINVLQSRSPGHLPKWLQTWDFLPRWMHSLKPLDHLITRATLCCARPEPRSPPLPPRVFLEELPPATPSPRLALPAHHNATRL
Assay: Npt2a activity cell based assay, membrane potential dye, CHO T-REx hNpt2a cells
Settings: doxycycline-induced, depolarization by sodium phosphate influx, average or median values if tested more than once
Method in brief: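 Doxycycline-induced (0.5 μg/mL, 24 h) CHO T-REx cells were loaded with membrane potential dye in sodium-free NHE buffer (pH 7.4) and exposed to compound (50 μM–1 nM, 5 min, room temperature).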

SMILES | IC50
CCc1c(Nc2cc(-n3cccn3)ncn2)nn(C)c1-c1ccc(F)cc1 [Example 245, N-[4-ethyl-5-(4-fluorophenyl)-1-methyl-1H-pyrazol-3-yl]-6-(1H-pyrazol-1-yl)pyrimidin-4-amine] | 660 nM
Cc1c(-c2ccc(C#N)cc2)nn(CC2CC2)c1Nc1cc(-n2cccn2)ncn1 [Example 246, 4-[1-(cyclopropylmethyl)-4-methyl-5-{[6-(1H-pyrazol-1-yl)pyrimidin-4-yl]amino}-1H-pyrazol-3-yl]benzonitrile] | 340 nM
Cc1c(-c2ccc(C#N)cc2)nn(CC2CC2)c1Nc1cc(-n2cc(C(F)(F)F)cn2)ncn1 [Example 247, 4-[1-(cyclopropylmethyl)-4-methyl-5-({6-[4-(trifluoromethyl)-1H-pyrazol-1-yl]pyrimidin-4-yl}amino)-1H-pyrazol-3-yl]benzonitrile] | 29 nM
Cc1cc(C)n(-c2cc(Nc3c(C)c(-c4ccc(C#N)cc4)nn3CC(F)F)ncn2)n1 [Example 248, 4-[1-(2,2-difluoroethyl)-5-{[6-(3,5-dimethyl-1H-pyrazol-1-yl)pyrimidin-4-yl]amino}-4-methyl-1H-pyrazol-3-yl]benzonitrile] | 182 nM
CCc1c(Nc2cc(-n3cc(C(F)(F)F)cn3)ncn2)nn(C)c1-c1ccc(F)cc1 [Example 250, N-[4-ethyl-5-(4-fluorophenyl)-1-methyl-1H-pyrazol-3-yl]-6-[4-(trifluoromethyl)-1H-pyrazol-1-yl]pyrimidin-4-amine] | 21 nM
Cc1cc(C(F)F)n(-c2cc(Nc3nn(CC(F)F)c(-c4ccc(C#N)cc4)c3C)ncn2)n1 [Example 251, 4-[1-(2,2-difluoroethyl)-3-({6-[5-(difluoromethyl)-3-methyl-1H-pyrazol-1-yl]pyrimidin-4-yl}amino)-4-methyl-1H-pyrazol-5-yl]benzonitrile] | 14 nM
Cc1cc(C)n(-c2cc(Nc3nn(CC(F)F)c(-c4ccc(C#N)cc4)c3C)ncn2)n1 [Example 252, 4-[1-(2,2-difluoroethyl)-3-{[6-(3,5-dimethyl-1H-pyrazol-1-yl)pyrimidin-4-yl]amino}-4-methyl-1H-pyrazol-5-yl]benzonitrile] | 48 nM
COc1c(Nc2cc(-n3nc(C)cc3C)ncn2)nn(C)c1-c1ccc(F)cc1 [Example 253, 6-(3,5-dimethyl-1H-pyrazol-1-yl)-N-[5-(4-fluorophenyl)-4-methoxy-1-methyl-1H-pyrazol-3-yl]pyrimidin-4-amine] | 67 nM
COc1c(-c2ccc(F)cc2)nn(C)c1Nc1cc(-n2nc(C)cc2C)ncn1 [Example 254, 6-(3,5-dimethyl-1H-pyrazol-1-yl)-N-[3-(4-fluorophenyl)-4-methoxy-1-methyl-1H-pyrazol-5-yl]pyrimidin-4-amine] | 150 nM
CCc1c(Nc2cc(-n3nc(C)c(CC4(O)CC4)c3C)ncn2)nn(C)c1-c1ccc(F)cc1 [Example 256, 1-{[1-(6-{[4-ethyl-5-(4-fluorophenyl)-1-methyl-1H-pyrazol-3-yl]amino}pyrimidin-4-yl)-3,5-dimethyl-1H-pyrazol-4-yl]methyl}cyclopropanol] | 35 nM
CCOC(=O)Cc1c(C)nn(-c2cc(Nc3c(C)nn(-c4ccc(C#N)cc4)c3C)ncn2)c1C [Example 257, ethyl [1-(6-{[1-(4-cyanophenyl)-3,5-dimethyl-1H-pyrazol-4-yl]amino}pyrimidin-4-yl)-3,5-dimethyl-1H-pyrazol-4-yl]acetate] | 74 nM
CCOC(=O)c1cc(C)nn1-c1cc(Nc2c(C)c(-c3ccc(C#N)cc3)nn2CC2CC2)ncn1 [Example 258, ethyl 1-(6-{[3-(4-cyanophenyl)-1-(cyclopropylmethyl)-4-methyl-1H-pyrazol-5-yl]amino}pyrimidin-4-yl)-3-methyl-1H-pyrazole-5-carboxylate] | 2800 nM
CCOC(=O)c1c(Cl)c(C)nn1-c1cc(Nc2nn(C)c(-c3ccc(F)cc3)c2C)ncn1 [Example 259, ethyl 4-chloro-1-(6-{[5-(4-fluorophenyl)-1,4-dimethyl-1H-pyrazol-3-yl]amino}pyrimidin-4-yl)-3-methyl-1H-pyrazole-5-carboxylate] | 50 nM
Cc1cc(C)n(-c2cc(Nc3c(C)c(-c4ccc(Br)cc4)nn3C)ncn2)n1 [Example 260, N-[3-(4-bromophenyl)-1,4-dimethyl-1H-pyrazol-5-yl]-6-(3,5-dimethyl-1H-pyrazol-1-yl)pyrimidin-4-amine] | 140 nM
Cc1nn(-c2cc(Nc3nn(C)c(-c4ccc(F)cc4)c3C)ncn2)c(C(C)(C)O)c1Cl [Example 261, 2-[4-chloro-1-(6-{[5-(4-fluorophenyl)-1,4-dimethyl-1H-pyrazol-3-yl]amino}pyrimidin-4-yl)-3-methyl-1H-pyrazol-5-yl]propan-2-ol] | 20 nM
Cc1cc(C(C)(C)O)n(-c2cc(Nc3nn(C)c(-c4ccc(F)cc4)c3C)ncn2)n1 [Example 262, 2-[1-(6-{[5-(4-fluorophenyl)-1,4-dimethyl-1H-pyrazol-3-yl]amino}pyrimidin-4-yl)-3-methyl-1H-pyrazol-5-yl]propan-2-ol] | 33 nM
Cc1cc(C(C)(C)O)n(-c2cc(Nc3c(C)c(-c4ccc(C#N)cc4)nn3CC3CC3)ncn2)n1 [Example 263, 4-[1-(cyclopropylmethyl)-5-({6-[5-(2-hydroxypropan-2-yl)-3-methyl-1H-pyrazol-1-yl]pyrimidin-4-yl}amino)-4-methyl-1H-pyrazol-3-yl]benzonitrile] | 111 nM
CCc1c(-c2ccc(F)cc2)nn(C)c1Nc1cc(-n2nc(C)cc2C(C)(C)O)ncn1 [Example 264, 2-[1-(6-{[4-ethyl-3-(4-fluorophenyl)-1-methyl-1H-pyrazol-5-yl]amino}pyrimidin-4-yl)-3-methyl-1H-pyrazol-5-yl]propan-2-ol] | 500 nM
CCc1c(-c2ccc(F)cc2)nn(C)c1Nc1cc(-n2nc(C)c(Br)c2C)ncn1 [Example 265, 6-(4-bromo-3,5-dimethyl-1H-pyrazol-1-yl)-N-[4-ethyl-3-(4-fluorophenyl)-1-methyl-1H-pyrazol-5-yl]pyrimidin-4-amine] | 180 nM
Cc1nn(-c2cc(Nc3[nH]nc(-c4ccc(C#N)cc4)c3C)ncn2)c(C)c1F [Example 266, 4-(5-{[6-(4-fluoro-3,5-dimethyl-1H-pyrazol-1-yl)pyrimidin-4-yl]amino}-4-methyl-1H-pyrazol-3-yl)benzonitrile] | 410 nM
Cc1nn(-c2cc(Nc3nn(C)c(-c4ccc(F)cc4)c3C)ncn2)c(C)c1F [Example 267, 6-(4-fluoro-3,5-dimethyl-1H-pyrazol-1-yl)-N-[5-(4-fluorophenyl)-1,4-dimethyl-1H-pyrazol-3-yl]pyrimidin-4-amine] | 27 nM
Cc1nn(-c2cc(Nc3c(C)c(-c4ccc(C#N)cc4)nn3CC3CC3)ncn2)c(C)c1F [Example 268, 4-[1-(cyclopropylmethyl)-5-{[6-(4-fluoro-3,5-dimethyl-1H-pyrazol-1-yl)pyrimidin-4-yl]amino}-4-methyl-1H-pyrazol-3-yl]benzonitrile] | 8 nM
CCc1c(Nc2cc(-n3nc(C)c(Cl)c3C(F)F)ncn2)nn(C)c1-c1ccc(F)cc1 [Example 270, 6-[4-chloro-5-(difluoromethyl)-3-methyl-1H-pyrazol-1-yl]-N-[4-ethyl-5-(4-fluorophenyl)-1-methyl-1H-pyrazol-3-yl]pyrimidin-4-amine] | 12 nM
CCc1c(Nc2cc(-n3nc(C)c(-c4nnc(C)o4)c3C)ncn2)nn(C)c1-c1ccc(F)cc1 [Example 271, 6-[3,5-dimethyl-4-(5-methyl-1,3,4-oxadiazol-2-yl)-1H-pyrazol-1-yl]-N-[4-ethyl-5-(4-fluorophenyl)-1-methyl-1H-pyrazol-3-yl]pyrimidin-4-amine] | 39 nM
CCc1c(Nc2cc(-n3nc(C)c(C(=O)N4CCC(C(F)(F)F)C4)c3C)ncn2)nn(C)c1-c1ccc(F)cc1 (stereo not shown) [Example 272, [1-(6-{[4-ethyl-5-(4-fluorophenyl)-1-methyl-1H-pyrazol-3-yl]amino}pyrimidin-4-yl)-3,5-dimethyl-1H-pyrazol-4-yl][3-(trifluoromethyl)pyrrolidin-1-yl]methanone] | 340 nM
CCc1c(Nc2cc(-n3nc(C)c4c3CCC4=O)ncn2)nn(C)c1-c1ccc(F)cc1 [Example 273, 1-(6-{[4-ethyl-5-(4-fluorophenyl)-1-methyl-1H-pyrazol-3-yl]amino}pyrimidin-4-yl)-3-methyl-5,6-dihydrocyclopenta[c]pyrazol-4(1H)-one] | 120 nM
CCc1c(Nc2cc(-n3nc4c(c3C)C(=O)CC4)ncn2)nn(C)c1-c1ccc(F)cc1 [Example 274, 2-(6-{[4-ethyl-5-(4-fluorophenyl)-1-methyl-1H-pyrazol-3-yl]amino}pyrimidin-4-yl)-3-methyl-5,6-dihydrocyclopenta[c]pyrazol-4(2H)-one] | 44 nM
Cc1cc(C)n(-c2cc(Nc3nn(C)c(-c4ccc(F)cc4)c3CN3CC(C(F)(F)F)C3)ncn2)n1 [Example 275, 6-(3,5-dimethyl-1H-pyrazol-1-yl)-N-[5-(4-fluorophenyl)-1-methyl-4-{[3-(trifluoromethyl)azetidin-1-yl]methyl}-1H-pyrazol-3-yl]pyrimidin-4-amine] | 1050 nM
